Results as given in PMC6017200, “Inhibition of Cytochrome P450 Activities by Extracts of Hyptis verticillata Jacq.: Assessment for Potential HERB-Drug Interactions” (Molecules : A Journal of Synthetic Chemistry and Natural …, 2018).
Values after ≈ are worked out from the molar mass of the structure shown. “Also recorded” adds a separate entry of the source. Like-named read-outs stand apart in the source and are kept apart here.

Tests used:
human CYP1A2 = molecular target: T1, human CYP1A2 (Homo sapiens, UniProt P05177); experiment: biochemical
T1 sequence (P05177 1-516): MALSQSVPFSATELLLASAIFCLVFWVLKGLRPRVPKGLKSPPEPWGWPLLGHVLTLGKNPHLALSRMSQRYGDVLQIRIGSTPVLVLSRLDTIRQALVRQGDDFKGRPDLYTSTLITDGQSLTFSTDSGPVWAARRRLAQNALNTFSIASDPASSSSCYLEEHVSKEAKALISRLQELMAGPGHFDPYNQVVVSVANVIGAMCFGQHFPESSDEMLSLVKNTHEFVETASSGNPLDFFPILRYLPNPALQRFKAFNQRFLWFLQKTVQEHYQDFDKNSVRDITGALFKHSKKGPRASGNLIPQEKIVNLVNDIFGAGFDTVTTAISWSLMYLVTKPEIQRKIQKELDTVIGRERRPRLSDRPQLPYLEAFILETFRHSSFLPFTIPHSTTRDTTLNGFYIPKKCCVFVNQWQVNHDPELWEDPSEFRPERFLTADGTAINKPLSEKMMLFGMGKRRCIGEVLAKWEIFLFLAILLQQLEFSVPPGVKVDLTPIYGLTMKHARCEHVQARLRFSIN
Procedure: Escherichia coli membranes expressing human CYP1A1, CYP1A2, CYP1B1, CYP3A4, and CYP2D6, co-expressed with CYP reductase, were purchased from Cypex Ltd. (Dundee, UK).
The following methodology was developed by Crespi et al. and adapted by Shields et al. and Murray et al. to screen natural products for cytochrome P450 inhibition potential with a particular emphasis on the P450 enzymes, CYPs 1A1, 1A2, 1B1, 3A4 and 2D6. Plant extracts and various phytochemicals were evaluated for their ability to inhibit the catalytic activity of human cytochrome P450 enzymes by means of high throughput fluorometric inhibition assays conducted in 96 well microtitre plates as described by Crespi et al., BD Gentest and Murray et al..
7-Ethoxy-3-cyanocoumarin (CEC) was used as a substrate for detecting the activities of CYPs 1A1, and 1A2, 7-ethoxyresorufin (ERes) for CYP1B1, 7-benzyloxy-4-trifluoromethylcoumarin (BFC) for CYP3A4, and 3-[2-(N,N-diethyl-N-methylammonium)-ethyl]-7-methoxy-4-methylcoumarin (AMMC) for CYP2D6. The reactions were monitored fluorometrically at 37 °C, using an Eclipse Fluorescence Spectrophotometer (Varian Cary, Palo Alto, CA, USA).
The data listed represent average values from a minimum of two experiments run in triplicate: % Enzyme activity = [Min + (Max − Min)/(1+10^((LogIC50^− x) × p))] where Min and Max are the minimal and maximal observed effects, respectively; x is the concentration of test agent; EC50 is the concentration yielding half-maximal response (i.e., IC50); and p is the slope parameter.

[1] = DPPH radical scavenging antioxidant assay; conditions: 0.097 to 50 µg/mL in methanol, thirty-minute incubation, 517 nm
Procedure: The 1,1-diphenyl-2-picrylhydrazyl (DPPH) assay was used to measure the antioxidant capacity of four different extracts of the aerial parts of H. verticillata (Figure 2). The reduction of DPPH to hydrazine produces a colour change from purple to yellow, which is measured spectrophotometrically and compared with the known antioxidant, ascorbic acid, as described in the Materials and Methods section.
Figure 2 (A) DPPH antioxidant assay for H. verticillata extracts. […] Positive control activity was determined in the presence of varying concentrations of known antioxidant, ascorbic acid, ranging from 0.097 to 50 µg/mL. Data are expressed as Mean Percentage Antioxidant Activity (% Inhibition of DPPH) for duplicate assays for at least two independent experiments. (B) Summary of results. […]
The DPPH radical scavenging capacity of extracts of H. verticillata were evaluated by the method described by Williams et al.. The electron-donating ability of each extract, at varying concentrations, was measured colourimetrically through the bleaching of purple-coloured MeOH solution of DPPH. […]
Each test extract, as well as the ascorbic acid control, was made up in methanol to a starting concentration of 50 µg/mL and serially diluted in ninety-six well microtitre plates. […] After a thirty-minute incubation period at room temperature, the absorbance was read against a blank, comprising methanol, at 517 nm. […]

CYP1A2 = conditions: human liver microsomes, read-out: IC50 Value, reported CYP1A2 inhibition, cited from earlier work
CYP2C8/C9/C19 = conditions: human liver microsomes; read-out: IC50 Value, reported CYP2C8/C9/C19 inhibition; cited from earlier work
CYP2D6 = conditions: read-out: IC50 Value, reported CYP2D6 inhibition, cited from earlier work
CYP3A4 = conditions: cited from earlier work; for IC50: read-out: IC50 Value, reported CYP3A4 inhibition
CYP2C9 = test system: CYP2C9; set-up: method as in PMID 21276781; conditions: read-out: IC50 Value, reported CYP2C9 inhibition; cited from earlier work
[2] = set-up: method as in PMID 24413832; conditions: aerial dried samples in ethanol; cited from earlier work
[3] = recombinant human CYP1A2, individual phytochemicals

In the case of COc1cc([C@@H]2c3cc4c(cc3[C@H](O)[C@H]3COC(=O)[C@H]23)OCO4)cc(OC)c1O [4′-Demethylpodophyllotoxin], the “IC50, CYP1A2 activity” value (human CYP1A2; [3]) is reported as “No inhibition”, the “IC50, CYP1A2 activity” value (human CYP1A2; recombinant human CYP1A2, individual phytochemicals, listed as 4-demethylpodophyllotoxin) is reported as “no inhibition” and the “IC50, CYP1A2 activity” value (human CYP1A2; recombinant human CYP1A2, individual phytochemicals, listed as 4′-demethylpodophyllotoxin) is reported as “no impact”.
Compound COc1cc(C[C@H]2C(=O)OC[C@@H]2Cc2ccc3c(c2)OCO3)cc(OC)c1OC [(-)-Yatein] has an IC50 (human CYP1A2) of 71.9 ± 1.8 µM.
In the case of O=C1O[C@H]([C@@H](O)CO)C(O)=C1O [Ascorbic acid], the “IC50, DPPH antioxidant assay” value [1] is reported as 1.32 ± 0.0 mg/L (≈ 7.49 µM) and the “IC50, DPPH antioxidant assay” value ([1]; listed as ascorbic acid) is reported as 1.3 mg/L (≈ 7.38 µM).
In the case of C=C1CCC(C(C)C)C2C=C(C)C(=O)CC12 (stereo not drawn) [Cadina-4,10(15)-dien-3-one], the IC50 (human CYP1A2; read-out: IC50, CYP1A2 activity, recombinant human CYP1A2, individual phytochemicals) is reported as > 500 µM.
For CC1(C)CC[C@]2(C(=O)O)CC[C@]3(C)C(=CC[C@@H]4[C@@]5(C)CC[C@H](O)C(C)(C)[C@@H]5CC[C@]43C)[C@@H]2C1 [Oleanolic acid], the IC50 (CYP1A2; listed as oleanolic) is listed as > 100 µM, the IC50 (CYP1A2) is listed as 144 µM and the IC50 (CYP2C8/C9/C19) is listed as > 500 µM. The IC50 (human CYP1A2) was > 100 µM, the IC50 (CYP2D6; human liver microsomes) was > 500 µM and the IC50 (CYP3A4; human liver microsomes) was […].
In the case of COc1cc([C@@H]2c3cc4c(cc3[C@H](O)[C@H]3COC(=O)[C@H]23)OCO4)cc(OC)c1OC [Podophyllotoxin], the “IC50, CYP1A2 activity” value (human CYP1A2; [3]) is reported as “No inhibition” and the “IC50, CYP1A2 activity” value (human CYP1A2; recombinant human CYP1A2, individual phytochemicals, listed as podophyllotoxin) is reported as “no impact; also recorded: no inhibition”.
In the case of O=C(/C=C/c1ccc(O)c(O)c1)O[C@H](Cc1ccc(O)c(O)c1)C(=O)O [Rosmarinic acid], the IC50 (CYP2C9) is given as 319 µM, the IC50 (CYP2D6) is given as > 500 µM and the “IC50 Value, reported CYP3A4 inhibition” value (CYP3A4) is given as “No impact”. For the same compound, the IC50 (CYP3A4) was 241 µM.
In the case of Cc1c(C)c2c(c(C)c1O)CCC(C)(C(=O)O)O2 (stereo not drawn) [Trolox], the “IC50, DPPH assay” value [2] is listed as 1.99 mg/L (≈ 7.95 µM).
With C[C@H]1[C@H](C)CC[C@]2(C(=O)O)CC[C@]3(C)C(=CC[C@@H]4[C@@]5(C)CC[C@H](O)C(C)(C)[C@@H]5CC[C@]43C)[C@H]12 [Ursolic acid] the IC50 (human CYP1A2) was > 100 µM.
